Results reported in the NIST ThermoML archive (doi:10.1016/j.tca.2009.01.008).
± gives the expanded uncertainty stated by the source.

What was measured:
[1] = molar heat capacity at constant pressure; settings: 101.33 kPa, Liquid, Vacuum adiabatic calorimetry
[2] = molar heat capacity at constant pressure; xn = mol fraction of the nth substance listed; settings: 101 kPa, Liquid, Vacuum adiabatic calorimetry

| SMILES | molar heat capacity at constant pressure ([1]; 303.15 K) [J/K/mol] | molar heat capacity at constant pressure ([1]; 313.15 K) [J/K/mol] | molar heat capacity at constant pressure ([1]; 323.15 K) [J/K/mol] | molar heat capacity at constant pressure ([1]; 333.15 K) [J/K/mol] | molar heat capacity at constant pressure ([1]; 343.15 K) [J/K/mol] | molar heat capacity at constant pressure ([1]; 353.15 K) [J/K/mol] | molar heat capacity at constant pressure ([2]; 303.15 K, x1 = 0.2) [J/K/mol] | molar heat capacity at constant pressure ([2]; 303.15 K, x1 = 0.4) [J/K/mol] | molar heat capacity at constant pressure ([2]; 303.15 K, x1 = 0.5) [J/K/mol] | molar heat capacity at constant pressure ([2]; 303.15 K, x1 = 0.6) [J/K/mol] | molar heat capacity at constant pressure ([2]; 303.15 K, x1 = 0.8) [J/K/mol] | molar heat capacity at constant pressure ([2]; 313.15 K, x1 = 0.2) [J/K/mol] | molar heat capacity at constant pressure ([2]; 313.15 K, x1 = 0.4) [J/K/mol] | molar heat capacity at constant pressure ([2]; 313.15 K, x1 = 0.5) [J/K/mol] | molar heat capacity at constant pressure ([2]; 313.15 K, x1 = 0.6) [J/K/mol] | molar heat capacity at constant pressure ([2]; 313.15 K, x1 = 0.8) [J/K/mol] | molar heat capacity at constant pressure ([2]; 323.15 K, x1 = 0.2) [J/K/mol] | molar heat capacity at constant pressure ([2]; 323.15 K, x1 = 0.4) [J/K/mol] | molar heat capacity at constant pressure ([2]; 323.15 K, x1 = 0.5) [J/K/mol] | molar heat capacity at constant pressure ([2]; 323.15 K, x1 = 0.6) [J/K/mol] | further results |
| --- | --- | --- | --- | --- | --- | --- | --- | --- | --- | --- | --- | --- | --- | --- | --- | --- | --- | --- | --- | --- | --- |
| CC(O)CO (centres undefined) [1,2-propanediol] | 192.8 ± 0.3 | 197 ± 0.3 | 201.3 ± 0.3 | 206 ± 0.3 | 210.6 ± 0.3 | 215.3 ± 0.3 |  |  |  |  |  |  |  |  |  |  |  |  |  |  |  |
| CC(O)CO (centres undefined) [1,2-propanediol] + O |  |  |  |  |  |  | 101.9 ± 0.2 | 127 ± 0.3 | 138.9 ± 0.3 | 150.3 ± 0.3 | 172.1 ± 0.3 | 103 ± 0.2 | 129.4 ± 0.3 | 141.9 ± 0.3 | 153.9 ± 0.3 | 176.4 ± 0.3 | 104.3 ± 0.2 | 132.1 ± 0.3 | 145.1 ± 0.3 | 157.7 ± 0.3 | molar heat capacity at constant pressure ([2]; 323.15 K, x1 = 0.8): 180.9 ± 0.3 J/K/mol; molar heat capacity at constant pressure ([2]; 333.15 K, x1 = 0.2): 105.8 ± 0.2 J/K/mol; molar heat capacity at constant pressure ([2]; 333.15 K, x1 = 0.4): 134.9 ± 0.3 J/K/mol; molar heat capacity at constant pressure ([2]; 333.15 K, x1 = 0.5): 148.7 ± 0.3 J/K/mol; molar heat capacity at constant pressure ([2]; 333.15 K, x1 = 0.6): 161.8 ± 0.3 J/K/mol; molar heat capacity at constant pressure ([2]; 333.15 K, x1 = 0.8): 185.8 ± 0.3 J/K/mol; molar heat capacity at constant pressure ([2]; 343.15 K, x1 = 0.2): 107.2 ± 0.3 J/K/mol; molar heat capacity at constant pressure ([2]; 343.15 K, x1 = 0.4): 137.7 ± 0.3 J/K/mol; molar heat capacity at constant pressure ([2]; 343.15 K, x1 = 0.5): 152.1 ± 0.3 J/K/mol; molar heat capacity at constant pressure ([2]; 343.15 K, x1 = 0.6): 165.8 ± 0.3 J/K/mol; molar heat capacity at constant pressure ([2]; 343.15 K, x1 = 0.8): 190.6 ± 0.3 J/K/mol; molar heat capacity at constant pressure ([2]; 353.15 K, x1 = 0.2): 108.8 ± 0.3 J/K/mol; molar heat capacity at constant pressure ([2]; 353.15 K, x1 = 0.4): 140.7 ± 0.3 J/K/mol; molar heat capacity at constant pressure ([2]; 353.15 K, x1 = 0.5): 155.6 ± 0.3 J/K/mol; molar heat capacity at constant pressure ([2]; 353.15 K, x1 = 0.6): 169.9 ± 0.3 J/K/mol; molar heat capacity at constant pressure ([2]; 353.15 K, x1 = 0.8): 195.5 ± 0.3 J/K/mol |
| OCCCOCCCO [4-oxa-1,7-heptanediol] | 329 ± 0.4 | 335.3 ± 0.4 | 341.5 ± 0.4 | 348.8 ± 0.4 | 355.8 ± 0.4 | 363.8 ± 0.4 |  |  |  |  |  |  |  |  |  |  |  |  |  |  |  |
| OCCCOCCCO [4-oxa-1,7-heptanediol] + O |  |  |  |  |  |  | 129.1 ± 0.3 | 181.8 ± 0.3 | 207.2 ± 0.3 | 231.9 ± 0.4 | 279.7 ± 0.4 | 130.8 ± 0.3 | 184.9 ± 0.3 | 210.9 ± 0.3 | 236.2 ± 0.4 | 285 ± 0.4 | 132.7 ± 0.3 | 188.2 ± 0.3 | 214.7 ± 0.3 | 240.7 ± 0.4 | molar heat capacity at constant pressure ([2]; 323.15 K, x1 = 0.8): 290.4 ± 0.4 J/K/mol; molar heat capacity at constant pressure ([2]; 333.15 K, x1 = 0.2): 135 ± 0.3 J/K/mol; molar heat capacity at constant pressure ([2]; 333.15 K, x1 = 0.4): 191.9 ± 0.3 J/K/mol; molar heat capacity at constant pressure ([2]; 333.15 K, x1 = 0.5): 219.3 ± 0.4 J/K/mol; molar heat capacity at constant pressure ([2]; 333.15 K, x1 = 0.6): 245.8 ± 0.4 J/K/mol; molar heat capacity at constant pressure ([2]; 333.15 K, x1 = 0.8): 296.6 ± 0.4 J/K/mol; molar heat capacity at constant pressure ([2]; 343.15 K, x1 = 0.2): 137.1 ± 0.3 J/K/mol; molar heat capacity at constant pressure ([2]; 343.15 K, x1 = 0.4): 195.5 ± 0.3 J/K/mol; molar heat capacity at constant pressure ([2]; 343.15 K, x1 = 0.5): 223.5 ± 0.4 J/K/mol; molar heat capacity at constant pressure ([2]; 343.15 K, x1 = 0.6): 250.8 ± 0.4 J/K/mol; molar heat capacity at constant pressure ([2]; 343.15 K, x1 = 0.8): 302.7 ± 0.4 J/K/mol; molar heat capacity at constant pressure ([2]; 353.15 K, x1 = 0.2): 139.5 ± 0.3 J/K/mol; molar heat capacity at constant pressure ([2]; 353.15 K, x1 = 0.4): 199.6 ± 0.3 J/K/mol; molar heat capacity at constant pressure ([2]; 353.15 K, x1 = 0.5): 228.3 ± 0.4 J/K/mol; molar heat capacity at constant pressure ([2]; 353.15 K, x1 = 0.6): 256.3 ± 0.4 J/K/mol; molar heat capacity at constant pressure ([2]; 353.15 K, x1 = 0.8): 309.4 ± 0.4 J/K/mol |
| OCCOCCO [diethylene glycol] | 248.2 ± 0.4 | 251.3 ± 0.4 | 255 ± 0.4 | 259.2 ± 0.4 | 263.8 ± 0.4 | 266.8 ± 0.4 |  |  |  |  |  |  |  |  |  |  |  |  |  |  |  |
| OCCOCCO [diethylene glycol] + O |  |  |  |  |  |  | 111.8 ± 0.3 | 148.7 ± 0.3 | 167.6 ± 0.3 | 184.5 ± 0.3 | 217.9 ± 0.3 | 113.5 ± 0.3 | 150.7 ± 0.3 | 169.9 ± 0.3 | 187.1 ± 0.3 | 221.2 ± 0.3 | 115.3 ± 0.3 | 153.3 ± 0.3 | 172.6 ± 0.3 | 190.3 ± 0.3 | molar heat capacity at constant pressure ([2]; 323.15 K, x1 = 0.8): 225 ± 0.3 J/K/mol; molar heat capacity at constant pressure ([2]; 333.15 K, x1 = 0.2): 117.4 ± 0.3 J/K/mol; molar heat capacity at constant pressure ([2]; 333.15 K, x1 = 0.4): 155.9 ± 0.3 J/K/mol; molar heat capacity at constant pressure ([2]; 333.15 K, x1 = 0.5): 175.5 ± 0.3 J/K/mol; molar heat capacity at constant pressure ([2]; 333.15 K, x1 = 0.6): 193.6 ± 0.3 J/K/mol; molar heat capacity at constant pressure ([2]; 333.15 K, x1 = 0.8): 229.1 ± 0.4 J/K/mol; molar heat capacity at constant pressure ([2]; 343.15 K, x1 = 0.2): 119.3 ± 0.3 J/K/mol; molar heat capacity at constant pressure ([2]; 343.15 K, x1 = 0.4): 158.7 ± 0.3 J/K/mol; molar heat capacity at constant pressure ([2]; 343.15 K, x1 = 0.5): 178.7 ± 0.3 J/K/mol; molar heat capacity at constant pressure ([2]; 343.15 K, x1 = 0.6): 197.3 ± 0.3 J/K/mol; molar heat capacity at constant pressure ([2]; 343.15 K, x1 = 0.8): 233.6 ± 0.4 J/K/mol; molar heat capacity at constant pressure ([2]; 353.15 K, x1 = 0.2): 121.7 ± 0.3 J/K/mol; molar heat capacity at constant pressure ([2]; 353.15 K, x1 = 0.4): 161.8 ± 0.3 J/K/mol; molar heat capacity at constant pressure ([2]; 353.15 K, x1 = 0.5): 182.2 ± 0.3 J/K/mol; molar heat capacity at constant pressure ([2]; 353.15 K, x1 = 0.6): 201.2 ± 0.3 J/K/mol; molar heat capacity at constant pressure ([2]; 353.15 K, x1 = 0.8): 238.5 ± 0.4 J/K/mol |
| OCCOCCOCCO [triethylene glycol] | 336.3 ± 0.4 | 339.5 ± 0.4 | 343.1 ± 0.4 | 347.9 ± 0.4 | 353.7 ± 0.4 | 359.3 ± 0.4 |  |  |  |  |  |  |  |  |  |  |  |  |  |  |  |
| OCCOCCOCCO [triethylene glycol] + O |  |  |  |  |  |  | 129.3 ± 0.3 | 184.1 ± 0.3 | 211.3 ± 0.3 | 237.8 ± 0.4 | 288.3 ± 0.4 | 131 ± 0.3 | 186.3 ± 0.3 | 213.6 ± 0.3 | 240.5 ± 0.4 | 291.8 ± 0.4 | 132.9 ± 0.3 | 189 ± 0.3 | 216.5 ± 0.3 | 243.7 ± 0.4 | molar heat capacity at constant pressure ([2]; 323.15 K, x1 = 0.8): 295.7 ± 0.4 J/K/mol; molar heat capacity at constant pressure ([2]; 333.15 K, x1 = 0.2): 135.1 ± 0.3 J/K/mol; molar heat capacity at constant pressure ([2]; 333.15 K, x1 = 0.4): 192.1 ± 0.3 J/K/mol; molar heat capacity at constant pressure ([2]; 333.15 K, x1 = 0.5): 219.8 ± 0.3 J/K/mol; molar heat capacity at constant pressure ([2]; 333.15 K, x1 = 0.6): 249.7 ± 0.4 J/K/mol; molar heat capacity at constant pressure ([2]; 333.15 K, x1 = 0.8): 300.3 ± 0.4 J/K/mol; molar heat capacity at constant pressure ([2]; 343.15 K, x1 = 0.2): 137.2 ± 0.3 J/K/mol; molar heat capacity at constant pressure ([2]; 343.15 K, x1 = 0.4): 195.2 ± 0.3 J/K/mol; molar heat capacity at constant pressure ([2]; 343.15 K, x1 = 0.5): 223.4 ± 0.4 J/K/mol; molar heat capacity at constant pressure ([2]; 343.15 K, x1 = 0.6): 251.8 ± 0.4 J/K/mol; molar heat capacity at constant pressure ([2]; 343.15 K, x1 = 0.8): 306 ± 0.4 J/K/mol; molar heat capacity at constant pressure ([2]; 353.15 K, x1 = 0.2): 139.7 ± 0.3 J/K/mol; molar heat capacity at constant pressure ([2]; 353.15 K, x1 = 0.4): 198.7 ± 0.3 J/K/mol; molar heat capacity at constant pressure ([2]; 353.15 K, x1 = 0.5): 227.3 ± 0.4 J/K/mol; molar heat capacity at constant pressure ([2]; 353.15 K, x1 = 0.6): 256.1 ± 0.4 J/K/mol; molar heat capacity at constant pressure ([2]; 353.15 K, x1 = 0.8): 311.3 ± 0.4 J/K/mol |
